Read-outs that look alike come from different tables or passages of the source.
Columns and labels:
T1R1/T1R3 receptor [1] = molecular target: T1, T1R1/T1R3 receptor (Felis catus, UniProt E3UMS2); assay: cell-based
Source text: (§1) HEK293 cells that stably express T1R3 and inducibly express T1R1 were exposed to nucleotide derivatives alone to activate the umami receptor. Activation of the T1R1/T1R3 receptor was detected by a change in intracellular calcium levels using a calcium sensitive fluorescent dye. Cells that express T1R3 but not T1R1 were used as a control. A FLIPR® Tetra or a FlexStation® 3 was used for data capture.
as §1, with “alone or in combination with one or more amino acids and/or one or more nucleotides” for “alone”, “dye and/or a luminescent reporter system.” for “dye.”
as §1, with “transmembrane compounds” for “nucleotide derivatives”, “alone or in combination with one or more amino acids and/or one or more nucleotides” for “alone”
In each experiment, serial dilutions of up to 10 mM of the transmembrane compound were added to the T1R1/T1R3-expressing cells.

T1R1/T1R3 receptor [2] = molecular target: T1, T1R1/T1R3 receptor; assay: Example 8: agonist screening of transmembrane compounds on T1R1/T1R3 in HEK293 cells; assay type: cell-based, cat; conditions: for agonist profile assessment (agonist activity): transmembrane compound alone; for T1R1/T1R3 agonist: transmembrane compound tested at 0.01, 0.1 and 1 mM, HEK293 cells expressing T1R1/T1R3, intracellular calcium
Description: (§2) HEK293 cells that stably express T1R3 and inducibly express T1R1 were exposed to a transmembrane compound. Activation of the T1R1/T1R3 receptor was detected by a change in intracellular calcium levels using a calcium sensitive fluorescent dye and/or a luminescent reporter system. […] A FLIPR® Tetra or a FlexStation® 3 was used for data capture.
Each transmembrane compound was tested at concentrations of 0.01 mM, 0.1 mM, and 1 mM. […] To generate the dose response curves, the transmembrane compound was tested at concentrations of between 0.0001 mM and 1.0 mM in the presence of GMP and Ala.

T1R1/T1R3 receptor [3] = molecular target: T1, T1R1/T1R3 receptor; assay: Example 8: PAM screening of transmembrane compounds with GMP and Ala on T1R1/T1R3 in HEK293 cells; assay type: cell-based, cat; conditions: for PAM profile assessment (PAM activity): in the presence of GMP and Alanine; for T1R1/T1R3 PAM: compound at 0.01, 0.1 and 1 mM in combination with GMP+Ala mixtures (T1-T4), PAM if response greater than sum of compound alone and GMP+Ala alone
Source text: as §2, with “to” for “to a”, “compound alone or in combination with Ala and GMP to activate the umami receptor.” for “compound.”
Dose response curves were generated for each transmembrane compound at concentrations of 0 (buffer only), 0.01, 0.1 and 1 mM, wherein each of the three concentrations of transmembrane compound was tested in combination with 0.03 mM GMP+100 mM Ala (T1); 0.6 mM GMP+10 mM Ala (T2); 0.1 mM GMP+60 mM Ala (T3) and 0.3 mM GMP+60 mM Ala (T4). The T4 mixture was also tested in a 2-fold dilution series (the T4(×) Concentration). In these experiments, the first test concentration was 2× (2 times) the T4 concentration. The subsequent test concentrations were 2-fold dilutions from that (1×, 0.5×etc.). This dilution series was tested with or without the addition of the test compound at a constant 0.3 mM concentration.
Activation of the umami receptor was also determined in the presence of 1 mM GMP+100 mM Ala to generate a “maximum” umami receptor activation level.

SMILES | T1R1/T1R3 agonist (T1R1/T1R3 receptor [2]) | T1R1/T1R3 PAM (T1R1/T1R3 receptor [3]) | further results
O=C1CC(=O)N(Cc2ccccc2)C(=O)N1Cc1ccccc1 [1,3-dibenzylpyrimidine-2,4,6(1H,3H,5H)-trione] | – | – | Max resp % of IMP, +Alanine (20 mM) (T1R1/T1R3 receptor [1]): 42.7%; Thres (mM), +Alanine (20 mM) (T1R1/T1R3 receptor [1]): 0.1 mM; EC50 (T1R1/T1R3 receptor [1]; EC50 (mM), +Alanine (20 mM)): 0.31 mM; EC50 (T1R1/T1R3 receptor [1]; EC50 (mM), +Alanine (20 mM) + IMP (0.2 mM)): > 0.3 mM; EC50 (T1R1/T1R3 receptor [1]; EC50 (mM), +IMP (0.2 mM), in the presence of 0.2 mM IMP): 0.52 mM; EC50 (T1R1/T1R3 receptor [1]; T1R1/T1R3 EC50 +0.2 mM IMP, +0.2 mM IMP): 0.52 ± 0.19 mM; EC50 (T1R1/T1R3 receptor [1]; T1R1/T1R3 EC50 +20 mM L-alanine): 0.31 ± 0.05 mM; EC50 (T1R1/T1R3 receptor [1]; T1R1/T1R3 EC50 +20 mM L-alanine + 0.2 mM IMP): > 0.3 mM; EC50 (T1R1/T1R3 receptor [1]; alone in buffer, read-out: T1R1/T1R3 EC50 alone in buffer): 0.26 ± 0.01 mM; EC50 (T1R1/T1R3 receptor [1]; compound alone in buffer, read-out: EC50 (mM), +buffer (alone)): 0.26 mM; Max resp % of Ala, +IMP (0.2 mM) (T1R1/T1R3 receptor [1]; in the presence of 0.2 mM IMP, relative to alanine): 35.7%; Thres (mM), +IMP (0.2 mM) (T1R1/T1R3 receptor [1]; threshold concentration in the presence of 0.2 mM IMP): 0.1 mM; agonist profile assessment (agonist activity) (T1R1/T1R3 receptor [2]): agonist activity
O=C(CN1C(=O)C(=O)N(Cc2ccccc2)C1=O)c1ccc2c(c1)OCCCO2 [1-benzyl-3-(2-(3,4-dihydro-2H-benzo[b][1,4]dioxepin-7-yl)-2-oxoethyl)imidazolidine-2,4,5-trione] | – | – | PAM profile assessment (PAM activity) (T1R1/T1R3 receptor [3]): PAM activity
O=C(CN1C(=O)C(=O)N(Cc2ccccc2)C1=O)c1ccc(Cl)s1 [1-benzyl-3-(2-(5-chlorothiophen-2-yl)-2-oxoethyl)imidazolidine-2,4,5-trione] | – | – | PAM profile assessment (PAM activity) (T1R1/T1R3 receptor [3]): PAM activity
COC(=O)[C@H](CC(C)C)NCc1ccccc1.Cl [Benzyl-L-leucine methyl ester hydrochloride] | – | – | agonist profile assessment (agonist activity) (T1R1/T1R3 receptor [2]): agonist; PAM profile assessment (PAM activity) (T1R1/T1R3 receptor [3]): PAM activity
O=C(CN1C(=O)C(=O)N(Cc2ccccc2)C1=O)c1ccccc1 [Formula 1, 1-benzyl-3-(2-oxo-2-phenylethyl)imidazolidine-2,4,5-trione] | No | No | –
O=C(CN1C(=O)C(=O)N(Cc2ccccc2)C1=O)c1ccc2c(c1)CCC2 [Formula 2, 1-benzyl-3-(2-(2,3-dihydro-1H-inden-5-yl)-2-oxoethyl)imidazolidine-2,4,5-trione] | No | No | –
O=C(CN1C(=O)C(=O)N(Cc2ccccc2)C1=O)c1ccc(Br)cc1 [Formula 3, 1-benzyl-3-(2-(4-bromophenyl)-2-oxoethyl)imidazolidine-2,4,5-trione] | No | No | –
O=C(CN1C(=O)C(=O)N(Cc2ccccc2)C1=O)c1ccc2c(c1)OCCO2 [Formula 4, 1-benzyl-3-(2-(2,3-dihydrobenzo[b][1,4]dioxin-6-yl)-2-oxoethyl)imidazolidine-2,4,5-trione] | No | No | –
COc1ccc(C(=O)CN2C(=O)C(=O)N(Cc3ccccc3)C2=O)c(OC)c1 [Formula 5, 1-benzyl-3-(2-(2,4-dimethoxyphenyl)-2-oxoethyl)imidazolidine-2,4,5-trione] | No | No | –
O=C(CN1C(=O)C(=O)N(CCc2cccs2)C1=O)c1ccccc1 [Formula 6, 1-(2-oxo-2-phenylethyl)-3-(2-(thiophen-2-yl)ethyl)imidazolidine-2,4,5-trione] | No | No | –
O=C(CN1C(=O)C(=O)N(CCc2cccs2)C1=O)c1ccc2c(c1)OCO2 [Formula 7, 1-(2-(benzo[d][1,3]dioxol-5-yl)-2-oxoethyl)-3-(2-(thiophen-2-yl)ethyl)imidazolidine-2,4,5-trione] | No | No | –
O=C(CN1C(=O)C(=O)N(Cc2ccccc2)C1=O)c1ccc2c(c1)OCCCO2 [Formula 8, 1-benzyl-3-(2-(3,4-dihydro-2H-benzo[b][1,4]dioxepin-7-yl)-2-oxoethyl)imidazolidine-2,4,5-trione] | No | Weak PAM | –
N#Cc1cccc(NC(=O)CN2C(=O)C(=O)N(Cc3ccccc3)C2=O)c1 [Formula 9, 2-(3-benzyl-2,4,5-trioxoimidazolidin-1-yl)-N-(3-cyanophenyl)acetamide] | No | No | –
COc1ccccc1C(=O)CN1C(=O)C(=O)N(Cc2cccs2)C1=O [Formula 10, 1-(2-(2-methoxyphenyl)-2-oxoethyl)-3-(thiophen-2-ylmethyl)imidazolidine-2,4,5-trione] | No | No | –
O=C(CN1C(=O)C(=O)N(CCc2cccs2)C1=O)c1cccc2ccccc12 [Formula 11, 1-(2-(naphthalen-1-yl)-2-oxoethyl)-3-(2-(thiophen-2-yl)ethyl)imidazolidine-2,4,5-trione] | No | No | –
O=C(CN1C(=O)C(=O)N(Cc2ccccc2)C1=O)c1ccc(Cl)s1 [Formula 12, 1-benzyl-3-(2-(5-chlorothiophen-2-yl)-2-oxoethyl)imidazolidine-2,4,5-trione] | No | Weak PAM | –
O=C1C(=O)N(Cc2ccccc2)C(=S)N1Cc1ccccc1 [Formula 13, 1,3-dibenzyl-2-thioxoimidazolidine-4,5-dione] | No | No | –
CCCC(CCC)NC(=O)c1ccc2c(c1)OCO2 [Formula 14, N-(heptan-4-yl)benzo[d][1,3]dioxole-5-carboxamide] | Yes | Yes | –
COC(=O)[C@H](Cc1ccccc1)NCc1ccccc1.Cl [Formula 15, N-Benzyl-L-phenylalanine methyl ester hydrochloride] | Yes | Yes | –
COC(=O)[C@@H](Cc1ccccc1)NCc1ccccc1.Cl [Formula 16, N-Benzyl-D-Phenylalanine methyl ester hydrochloride] | Yes | Yes | –
COC(=O)[C@H](CC(C)C)NCc1ccccc1.Cl [Formula 18, Benzyl-L-leucine methyl ester hydrochloride] | Yes | Yes | –
COC(=O)C(NCc1ccccc1)c1ccccc1 (stereo not shown) [Formula 19, Methyl-2-benzylamino-2-phenylacetate] | Yes | Yes | –
Cl.N[C@@H](Cc1ccccc1)C(=O)OCc1ccccc1 [Formula 20, L-Phenylalanine benzyl ester hydrochloride] | Yes | Yes | –
N[C@@H](Cc1ccc(O)cc1)C(=O)OCc1ccccc1 [Formula 21, L-Tyrosine benzyl ester] | No | No | –
O=C(O)[C@H](Cc1ccc(O)cc1)NCc1ccccc1 [Formula 22, N-Benzyl-L-Tyrosine] | No | No | –
Cc1ccc(CNC(Cc2ccccc2)C(=O)O)cc1 (stereo not shown) [Formula 23, 2-((4-methylbenzyl)amino)-3-phenylpropanoic acid] | No | No | –
O=C1CC(=O)N(Cc2ccccc2)C(=O)N1Cc1ccccc1 [Formula 24, 1,3-dibenzylpyrimidine-2,4,6(1H,3H,5H)-trione] | Yes | No | –
Cl.N[C@@H](Cc1ccccc1)C(=O)OCc1ccccc1 [L-Phenylalanine benzyl ester hydrochloride] | – | – | agonist profile assessment (agonist activity) (T1R1/T1R3 receptor [2]): agonist; PAM profile assessment (PAM activity) (T1R1/T1R3 receptor [3]): PAM activity
COC(=O)C(NCc1ccccc1)c1ccccc1 (stereo not shown) [Methyl-2-benzylamino-2-phenylacetate] | – | – | agonist profile assessment (agonist activity) (T1R1/T1R3 receptor [2]): agonist; PAM profile assessment (PAM activity) (T1R1/T1R3 receptor [3]): PAM activity

From patent publication US20180168208A1 (priority 2014, published 2018)
